Calls of active or inactive are those of the source. The calls are words filed in the database; no cut-off is given here.
How the values were obtained:
[1] = target: T1, Histone-lysine N-methyltransferase 2A/WDR5 (Homo sapiens) (UniProt P61964+Q03164); test: Inhibition of MLL1-WDR5 interaction in human MV4-11 cells assessed as downregulation of Meis1 gene expression at 5 uM incubated for 6 days by qRT-PCR analysis; format: cell-based; conditions: time 6.0 day
[2] = target: T1, Histone-lysine N-methyltransferase 2A/WDR5 (Homo sapiens); test: Inhibition of MLL1-WDR5 interaction in human MV4-11 cells assessed as reduction in H3K4me2 expression at 5 uM incubated for 6 days by Western blot analysis; format: cell-based; conditions: time 6.0 day
[3] = target: T1, Histone-lysine N-methyltransferase 2A/WDR5 (Homo sapiens); test: Inhibition of MLL1-WDR5 interaction in human MV4-11 cells assessed as downregulation of Hoxa9 gene expression at 5 uM incubated for 6 days by qRT-PCR analysis; format: cell-based; conditions: time 6.0 day
[4] = target: T1, Histone-lysine N-methyltransferase 2A/WDR5 (Homo sapiens); test: Inhibition of MLL1-WDR5 interaction in human MV4-11 cells assessed as reduction in H3K4me1 expression at 5 uM incubated for 6 days by Western blot analysis; format: cell-based; conditions: time 6.0 day
[5] = target: Histone-lysine N-methyltransferase 2A/WDR5 (Homo sapiens, UniProt P61964); test: Inhibition of MLL1-WDR5 interaction […] assessed as reduction in MLL1 binding to WDR5 WIN site by 5-FAM probe based fluorescence polarization assay
MV4-11 [6] = test: Induction of apoptosis in human MV4-11 cells harboring MLL1-AF4 incubated for 72 hrs by annexin V-FITC and propidium iodide staining based assay; format: functional, cell-based; conditions: dose 5-25 µM
[7] = target: T1, Histone-lysine N-methyltransferase 2A/WDR5 (Homo sapiens); test: Inhibition of MLL1-WDR5 interaction in human MV4-11 cells assessed as downregulation of Hoxa9 gene expression at 10 uM incubated for 6 days by qRT-PCR analysis relative to control; format: cell-based; conditions: time 6.0 day
MV4-11 [8] = test: Induction of apoptosis in human MV4-11 cells harboring MLL1-AF4 assessed as viable cells at 25 uM incubated for 72 hrs by annexin V-FITC and propidium iodide staining based assay (reference value: 93.75 %); format: functional; conditions: read-out: Activity
MV4-11 [9] = test: Induction of apoptosis in human MV4-11 cells harboring MLL1-AF4 assessed as necrotic cells at 25 uM incubated for 72 hrs by annexin V-FITC and propidium iodide staining based assay (reference value: 0.05 %); format: functional
MV4-11 [10] = test: Induction of apoptosis in human MV4-11 cells harboring MLL1-AF4 assessed as early apoptotic cells at 10 uM incubated for 72 hrs by annexin V-FITC and propidium iodide staining based assay (reference value: 4.35 %); format: functional
[11] = target: T1, Histone-lysine N-methyltransferase 2A/WDR5 (Homo sapiens); test: Inhibition of MLL1-WDR5 interaction in human MV4-11 cells assessed as downregulation of Meis1 gene expression incubated for 6 days by qRT-PCR analysis; format: cell-based; conditions: dose 1-20 µM, time 6.0 day
[12] = Cytotoxicity against human L02 cells; format: cell-based
MOLM-13 = test: Antiproliferative activity against human MOLM-13 cells harboring MLL1-AF9; format: functional
MV4-11 [13] = test: Induction of apoptosis in human MV4-11 cells harboring MLL1-AF4 assessed as late apoptotic cells at 5 uM incubated for 72 hrs by annexin V-FITC and propidium iodide staining based assay (reference value: 1.85 %); format: functional
MV4-11 [14] = test: Induction of apoptosis in human MV4-11 cells harboring MLL1-AF4 assessed as early apoptotic cells at 5 uM incubated for 72 hrs by annexin V-FITC and propidium iodide staining based assay (reference value: 4.35 %); format: functional
[15] = Cytotoxicity against HUVEC cells; format: cell-based; conditions: human
MV4-11 [16] = test: Induction of apoptosis in human MV4-11 cells harboring MLL1-AF4 assessed as viable cells at 10 uM incubated for 72 hrs by annexin V-FITC and propidium iodide staining based assay (reference value: 93.75 %); format: functional; conditions: read-out: Activity
[17] = target: T1, Histone-lysine N-methyltransferase 2A/WDR5 (Homo sapiens); test: Inhibition of MLL1-WDR5 interaction in human MV4-11 cells assessed as downregulation of Hoxa9 gene expression incubated for 6 days by qRT-PCR analysis; format: cell-based; conditions: dose 1-20 µM, time 6.0 day
MV4-11 [18] = test: Antiproliferative activity against human MV4-11 cells harboring MLL1-AF4; format: functional
[19] = target: T1, Histone-lysine N-methyltransferase 2A/WDR5 (Homo sapiens); test: Inhibition of MLL1-WDR5 interaction in human MV4-11 cells assessed as reduction in H3K4me1 expression incubated for 6 days by Western blot analysis; format: cell-based; conditions: dose 0.1-20 µM, time 6.0 day
K562 = test: Antiproliferative activity against human K562 cells harboring MLL1; format: functional
MV4-11 [20] = test: Induction of apoptosis in human MV4-11 cells harboring MLL1-AF4 assessed as late apoptotic cells at 10 uM incubated for 72 hrs by annexin V-FITC and propidium iodide staining based assay (reference value: 1.85 %); format: functional
MV4-11 [21] = test: Induction of apoptosis in human MV4-11 cells harboring MLL1-AF4 assessed as necrotic cells at 5 uM incubated for 72 hrs by annexin V-FITC and propidium iodide staining based assay (reference value: 0.05 %); format: functional
MV4-11 [22] = test: Induction of apoptosis in human MV4-11 cells harboring MLL1-AF4 assessed as viable cells at 5 uM incubated for 72 hrs by annexin V-FITC and propidium iodide staining based assay (reference value: 93.75 %); format: functional; conditions: read-out: Activity
[23] = target: T1, Histone-lysine N-methyltransferase 2A/WDR5 (Homo sapiens); test: Inhibition of MLL1-WDR5 interaction in human MV4-11 cells assessed as downregulation of Meis1 gene expression at 10 uM incubated for 6 days by qRT-PCR analysis relative to control; format: cell-based; conditions: time 6.0 day
MV4-11 [24] = test: Induction of apoptosis in human MV4-11 cells harboring MLL1-AF4 assessed as early apoptotic cells at 25 uM incubated for 72 hrs by annexin V-FITC and propidium iodide staining based assay (reference value: 4.35 %); format: functional
[25] = target: T1, Histone-lysine N-methyltransferase 2A/WDR5 (Homo sapiens); test: Inhibition of MLL1-WDR5 interaction in human MV4-11 cells assessed as reduction in H3K4me2 expression incubated for 6 days by Western blot analysis; format: cell-based; conditions: dose 0.1-20 µM, time 6.0 day
MV4-11 [26] = test: Induction of apoptosis in human MV4-11 cells harboring MLL1-AF4 assessed as late apoptotic cells at 25 uM incubated for 72 hrs by annexin V-FITC and propidium iodide staining based assay (reference value: 1.85 %); format: functional
MV4-11 [27] = test: Induction of apoptosis in human MV4-11 cells harboring MLL1-AF4 assessed as necrotic cells at 10 uM incubated for 72 hrs by annexin V-FITC and propidium iodide staining based assay (reference value: 0.05 %); format: functional

Structure (SMILES)	IC50 [5] [µM]	GI50 [12] [µM]	GI50 (MOLM-13) [µM]	GI50 [15] [µM]	GI50 (MV4-11 [18]) [µM]	GI50 (K562) [µM]	also measured
Cc1c(F)c(N)cc(C(=O)Nc2cc(-c3ccc(N)cc3)ccc2N2CCN(C)CC2)c1Cl	–	–	–	–	–	–	inhibition [1]: Active; inhibition [2]: Active; inhibition [3]: Active; inhibition [4]: Active
COc1c(C)cnc(C[S+]([O-])c2nc3ccccc3s2)c1C (stereo unspecified)	> 100	–	–	–	–	–	–
COc1c(C)cnc(C[S+]([O-])c2nc3ccccc3[nH]2)c1C (stereo unspecified)	1.1	–	–	–	–	–	–
COCCCOc1ccnc(CS(=O)(=O)c2nc3cc(OC(F)F)ccc3[nH]2)c1	> 100	–	–	–	–	–	–
COCCCOc1ccnc(C[S+]([O-])c2nc3ccccc3[nH]2)c1C (stereo unspecified) [RABEPRAZOLE]	0.49	> 100	17.5	> 100	14.1	> 100	Activity (MV4-11 [6]): Dose-dependent effect; inhibition [7]: 50%; viability at 25 µM (MV4-11 [8]): 76.3%; Activity (MV4-11 [9]): 0.8%; Activity (MV4-11 [10]): 4.75%; inhibition [11]: Dose-dependent effect; Activity (MV4-11 [13]): 5.65%; Activity (MV4-11 [14]): 7.75%; viability at 10 µM (MV4-11 [16]): 86.2%; inhibition [17]: Dose-dependent effect; inhibition [19]: Dose-dependent effect; Activity (MV4-11 [20]): 8.7%; Activity (MV4-11 [21]): 0.2%; viability at 5 µM (MV4-11 [22]): 86.4%; inhibition [23]: 50%; Activity (MV4-11 [24]): 6.4%; inhibition [25]: Dose-dependent effect; Activity (MV4-11 [26]): 16.5%; Activity (MV4-11 [27]): 0.3%
COc1ccc2nc([S@@+]([O-])Cc3ncc(C)c(OC)c3C)[nH]c2c1 [ESOMEPRAZOLE]	1.8	> 100	32	> 100	47.6	> 100	–
Cc1cccnc1C[S+]([O-])c1nc2ccccc2[nH]1 (stereo unspecified)	> 100	–	–	–	–	–	–
COc1c(C)cnc(CSc2nc3ccccc3[nH]2)c1C	> 100	–	–	–	–	–	–
Cc1c(OCC(F)(F)F)ccnc1C[S@@+]([O-])c1nc2ccccc2[nH]1 [DEXLANSOPRAZOLE]	5.7	> 100	27.2	> 100	25.1	> 100	–
Cc1ccccc1C[S+]([O-])c1nc2ccccc2[nH]1 (stereo unspecified)	> 100	–	–	–	–	–	–
COc1c(C)cnc(C[S+]([O-])c2nc3ccccc3o2)c1C (stereo unspecified)	> 100	–	–	–	–	–	–
Cc1c(OCC(F)(F)F)ccnc1C[S+]([O-])c1nc2ccccc2[nH]1 (stereo unspecified) [LANSOPRAZOLE]	5.9	> 100	30.1	> 100	21.1	> 100	–
COCCCOc1ccnc(C[S+]([O-])c2nc3cc(OC(F)F)ccc3[nH]2)c1C (stereo unspecified)	1.7	–	–	–	–	–	–
COc1ccc2[nH]c([S+]([O-])Cc3ncc(C)c(OC)c3C)nc2c1 (stereo unspecified) [OMEPRAZOLE]	1.7	> 100	34.1	> 100	37.3	> 100	–
